Laboratory results taken from US5830863A, “Neurokinin A antagonists” (priority 1996, dated 1998).
Residues, ends and D or L forms follow the SMILES beside them.

Columns and labels:
[1] = biological target: T1, neurokinin A (NKA) receptor (NK-2) (Mesocricetus auratus, UniProt P51144); experiment: displacement of I125 labeled NKA from hamster urinary bladder membranes; format: binding
T1 construct: displace I125 labeled NKA from hamster urinary bladder; from tissue; host or cells: hamster urinary bladder (membranes in A1, chopped tissue in A4)
T1 sequence (P51144 1-384): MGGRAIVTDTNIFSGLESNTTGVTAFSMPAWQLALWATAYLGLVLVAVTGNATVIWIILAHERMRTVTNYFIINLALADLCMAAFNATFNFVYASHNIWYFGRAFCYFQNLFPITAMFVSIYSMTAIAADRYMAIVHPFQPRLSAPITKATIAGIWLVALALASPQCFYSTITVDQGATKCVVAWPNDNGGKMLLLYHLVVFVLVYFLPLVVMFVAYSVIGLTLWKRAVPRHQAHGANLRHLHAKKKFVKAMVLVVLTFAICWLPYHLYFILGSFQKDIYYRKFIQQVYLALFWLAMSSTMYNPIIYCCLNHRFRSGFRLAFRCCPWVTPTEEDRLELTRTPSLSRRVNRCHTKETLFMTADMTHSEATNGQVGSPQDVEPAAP
Description: The abscissa (x-axis) logarithmically indicates the concentration in nanomoles of agonist of antagonist of the neurokinin A (NKA) receptor. The ordinate (Y-axis) indicates the observed specific binding for each tested agonist or antagonist measured as a percentage of maximum specific binding.
Agonists tested were NKA and fragments of NKA consisting of the third to tenth (NKA(3-10)) amino acids and the fourth to tenth (NKA(4-10)) amino acids. Values are MEAN±S.E.M. of 6-12 experiments. IC50 values estimated graphically from 50% inhibition point.
Urinary bladders from several hamsters were pooled, minced, and homogenized in 50 mM TRIS-HCl (pH 7.4) containing 120 mM NaCl and 5 mM KCl at 4° C. and centrifuged at 48,000×g for 15 minutes. The pellet was resuspended for 30 minutes in 50 mM TRIS-HCl (pH 7.4) containing 10 mM EDTA and 300 mM KCl at 4° C. The suspension was centrifuged as above and the pellet was washed two times in plain 50 mM TRIS-HCl (pH 7.4) and centrifuged similarly. The tissue was then resuspended in incubation buffer and an aliquot (approximately 3-5 mg tissue) was added to each assay tube to commence the assay. The assay tubes contained incubation buffer consisting of 50 mM TRIS-HCl (pH 7.4), 0.02% BSA, 40 μg/ml bacitracin, 4 μg/ml chymostatin, 4 μg/ml leupeptin, 2 mM MnCl2, 0.1 nM ^125 iodohistidyl^1 -neurokinin A (Amersham Corp.), and concentrations of the title compounds or standards ranging from 0.03 nM to 100 μM. The assay was allowed to proceed to equilibrium for 120 min at room temperature. After this time, the contents of each tube was rapidly filtered over Whatman GF/B filters presoaked in 0.5% BSA and the filters were rapidly washed two times with ice-cold plain 50 mM TRIS-HCl (pH 7.4). Filter-bound radioactivity was quantitated in a gamma counter. Specific binding (maximum) was defined as the difference between binding in the presence and absence of 1 μM unlabeled neurokinin A. Competition of iodinated neurokinin A binding by test compounds or standards was expressed as a percentage of this maximum competition.
Values given indicate the concentration in nanomoles of antagonist to reach the IC50 of the neurokinin A (NKA) receptor. SKLKB82#3 represents a cloned NK-2 receptor cell line; the sample is prepared from the scraped cell pellet for assay as earlier described for the hamster urinary bladder preparations. NK-1 represents a substance P receptor preparation from rat salivary gland; receptors are prepared as earlier described for the hamster urinary bladder preparations. Blank spaces indicate compound has not been tested in that particular assay.

[2] = biological target: T2, NKA receptor (Mesocricetus auratus, UniProt P51144); experiment: phosphatidylinositol (PI) turnover in hamster urinary bladder; format: cell-based; conditions: test compound alone; ID#3 up to 100 μM
T2 construct: displace I125 labeled NKA from hamster urinary bladder; from tissue; host or cells: hamster urinary bladder (membranes in A1, chopped tissue in A4)
T2 sequence (P51144 1-384): T1 sequence (P51144 1-384)
Procedure: The abscissa (x-axis) logarithmically indicates the concentration in nanomolar (nM) of agonist or antagonist of the NKA receptor. The ordinate (y-axis) indicates the observed PI turnover as a percentage of control. […] The ordinate (y-axis) indicates the observed PI turnover as a percentage of control. […] Urinary bladders from several hamsters were pooled and chopped at 350 μm with a tissue chopper. The chopped tissue was then incubated in 37° C. Krebs-Hepes buffer with fresh buffer changes every 15 minutes for 30 minutes. The tissue was then incubated in this buffer containing 100-200 μCi of ^3 H-inositol at 37° C. […] Test compound was also evaluated alone at the indicated concentrations to test for agonist activity. […] 50 μl of the bottom phase (chloroform) was withdrawn from each tube and placed in a counting vial, dried, and counted in scintillation fluid. The material on the columns was washed in order with: 1) 10 ml of water 2) 5 ml of 5 mM disodium tetraborate/60 mM sodium formate 3) 10 ml of 1M ammonium formate in 0.1M formic acid The final (third) wash was collected and one ml was mixed with 6 ml of ACS scintillant and counted. The ratio of these counts (total inositol phosphates) to the corresponding organic phase counts was then calculated for each sample. […]

IC50 [1] [nM] | partial agonist activity (PI turnover) [2] [%] | Structure (SMILES)
157 ± 17 | 12 | CC(C)C[C@@H](CN[C@@H](CC(C)C)C(N)=O)NC(=O)CNC(=O)[C@@H](NC(=O)[C@H](Cc1ccccc1)NC(=O)[C@H](CO)NC(=O)[C@@H](N)CC(=O)O)C(C)C [MDL 28,564, H-Asp-Ser-Phe-Val-Gly-Leu.PSI.(CH2 NH)Leu-NH2] (HELM PEPTIDE1{D.S.F.V.G.[CC(C)C[C@@H](CN[C@@H](CC(C)C)C(N)=O)N[*:1]]}$$$$V2.0)
210 ± 15 | 5 | CC(C)C[C@@H](CN(C)[C@@H](CC(C)C)C(N)=O)NC(=O)CNC(=O)[C@@H](NC(=O)[C@H](Cc1ccccc1)NC(=O)[C@H](CO)NC(=O)[C@@H](N)CC(=O)O)C(C)C [MDL 29,916, H-Asp-Ser-Phe-Val-Gly-Leu.PSI.(CH2 NCH3)Leu-NH2] (HELM PEPTIDE1{D.S.F.V.G.[CC(C)C[C@@H](CN(C)[C@@H](CC(C)C)C(N)=O)N[*:1]]}$$$$V2.0)
